Laboratory results as given in patent US20260315611A1, “LINKER COMPOUNDS AND LIGAND-DRUG CONJUGATES, PREPARATION METHODS AND USES THEREOF” (Biocytogen Pharmaceuticals (Beijing) Co., Ltd., priority 2023, published 2026).
pIC50: −log10 of the molar value.

Key:
PC12 = experiment: in vitro killing activity; format: cell-based, Rat; settings: Rattus norvegicus, PC-12; 120 time of incubation
Experimental: (§1) Different concentrations of compounds CPT-1, CPT-2, CPT-3, CPT-4, Dxd (MedChem Express, Cat #: HY-13631D) and SN38 (MedChem Express, Cat #: HY-13704) were used to treat different human tumor cell lines, mice tumor cell lines, rat tumor cell lines or dog tumor cell lines cultured in a cell culture plate, respectively. And the killing activity was detected after 72 h-120 h incubation by IncuCyte (Sartorius AG, IncuCyte® S3) or MicroplateReader.

L6 = experiment: in vitro killing activity; format: cell-based, Rat; settings: Rattus norvegicus, L6; 120 h incubation
Experimental: as §1

B16F10 = experiment: in vitro killing activity; format: cell-based, Mice; settings: Mus musculus, B16-F10; 75 time of incubation
Experimental: as §1

CT26 = experiment: in vitro killing activity; format: cell-based, Mice; settings: Mus musculus, CT26; 96 time of incubation
Experimental: as §1

MC38 = experiment: in vitro killing activity; format: cell-based, Mice; settings: Mus musculus, MC-38; 120 time of incubation
Experimental: as §1

U-2-OS = experiment: in vitro killing activity; format: cell-based, Human; settings: Homo sapiens, U2OS; 120 time of incubation
Experimental: as §1

Panc 02.03 = experiment: in vitro killing activity; format: cell-based, Human; settings: Homo sapiens, Panc 02.03; 120 time of incubation
Experimental: as §1

SW156 = experiment: in vitro killing activity; format: cell-based, Human; settings: Homo sapiens; 120 time of incubation
Experimental: as §1

HS-746T = experiment: in vitro killing activity; format: cell-based, Human; settings: Homo sapiens, Hs746T; 120 time of incubation
Experimental: as §1

NCI-H226 = experiment: in vitro killing activity; format: cell-based, Human; settings: Homo sapiens, NCI-H226; 120 h incubation
Experimental: as §1

NCI-H69 = experiment: in vitro killing activity; format: cell-based, Human; settings: Homo sapiens, NCI-H69; 120 time of incubation
Experimental: as §1

BT474 = experiment: in vitro killing activity; format: cell-based, Human; settings: Homo sapiens, BT-474; 120 time of incubation
Experimental: as §1

HuH-7 = experiment: in vitro killing activity; format: cell-based, Human; settings: Homo sapiens, Huh-7; 120 h incubation
Experimental: as §1

BxPC-3 = experiment: in vitro killing activity; format: cell-based, Human; settings: Homo sapiens, BXPC-3; 120 time of incubation
Experimental: as §1

OVKATE = experiment: in vitro killing activity; format: cell-based, Human; settings: Homo sapiens; 120 time of incubation
Experimental: as §1

PC-3 = experiment: in vitro killing activity; format: cell-based, Human; settings: Homo sapiens, PC-3; 120 time of incubation
Experimental: as §1

SW620 = experiment: in vitro killing activity; format: cell-based, Human; settings: Homo sapiens, SW-620; 120 h incubation
Experimental: as §1

NCI-N87 = experiment: in vitro killing activity; format: cell-based, Human; settings: Homo sapiens, NCI-N87; 120 time of incubation
Experimental: as §1

NCI-H1781 = experiment: in vitro killing activity; format: cell-based, Human; settings: Homo sapiens, NCI-H1781; 120 time of incubation
Experimental: as §1

SKOV-3 = experiment: in vitro killing activity; format: cell-based, Human; settings: Homo sapiens, SK-OV-3; 120 time of incubation
Experimental: as §1

HCC1954 = experiment: in vitro killing activity; format: cell-based, Human; settings: Homo sapiens, HCC1954; 120 time of incubation
Experimental: as §1

A-431 = experiment: in vitro killing activity; format: cell-based, Human; settings: Homo sapiens, A-431; 120 time of incubation
Experimental: as §1

NCI-H2030 = experiment: in vitro killing activity; format: cell-based, Human; settings: Homo sapiens, NCI-H2030; 120 time of incubation
Experimental: as §1

Hela = experiment: in vitro killing activity; format: cell-based, Human; settings: Homo sapiens, HeLa; 120 h incubation
Experimental: as §1

LOVO = experiment: in vitro killing activity; format: cell-based, Human; settings: Homo sapiens, LoVo; 120 h incubation
Experimental: as §1

NCI-H1975 = experiment: in vitro killing activity; format: cell-based, Human; settings: Homo sapiens, NCI-H1975; 120 time of incubation
Experimental: as §1

multiple cell lines = experiment: in vitro killing activity, multiple tumor cell lines; format: cell-based, human, mice, rat, dog
Experimental: as §1

D17 = experiment: in vitro killing activity; format: cell-based, Dog; settings: Canis lupus familiaris, D17; 120 time of incubation
Experimental: as §1

DCOL1 (S+L−) = experiment: in vitro killing activity; format: cell-based, Dog; settings: Canis lupus familiaris; 120 time of incubation
Experimental: as §1

MP-0094-3 = experiment: in vitro killing activity; format: cell-based, Dog; settings: Canis lupus familiaris; 120 time of incubation
Experimental: as §1

CMT-U27 = experiment: in vitro killing activity; format: cell-based, Dog; settings: Canis lupus familiaris; 120 time of incubation
Experimental: as §1

MP-1044-1 = experiment: in vitro killing activity; format: cell-based, Dog; settings: Canis lupus familiaris; 72 time of incubation
Experimental: as §1

MP-0094-2 = experiment: in vitro killing activity; format: cell-based, Dog; settings: Canis lupus familiaris; 120 time of incubation
Experimental: as §1

MP-1092-1 = experiment: in vitro killing activity; format: cell-based, Dog; settings: Canis lupus familiaris; 120 time of incubation
Experimental: as §1

SMILES | pIC50 (PC12) | pIC50 (L6) | pIC50 (B16F10) | pIC50 (CT26) | pIC50 (MC38) | pIC50 (U-2-OS) | pIC50 (Panc 02.03) | pIC50 (SW156) | pIC50 (HS-746T) | pIC50 (NCI-H226) | pIC50 (NCI-H69) | pIC50 (BT474) | pIC50 (HuH-7) | pIC50 (BxPC-3) | pIC50 (OVKATE) | pIC50 (PC-3) | pIC50 (SW620) | pIC50 (NCI-N87) | pIC50 (NCI-H1781) | pIC50 (SKOV-3) | other results
CC[C@@]1(O)C(=O)OCc2c1cc1n(c2=O)Cc2c-1nc1ccc(N)c3c1c2CCS3 [CPT-1] | 8.78 | 8.43 | 8.48 | 8.42 | 8.17 | 8.58 | 9.58 | 9.43 | 9.28 | 8.63 | 9.52 | 8.21 | 9.13 | 9.67 | 8.65 | 9.07 | 9.12 | 8.92 | 9.53 | 8.74 | pIC50 (HCC1954): 8.88; pIC50 (A-431): 8.53; pIC50 (NCI-H2030): 8.96; pIC50 (Hela): 8.99; pIC50 (LOVO): 8.82; pIC50 (NCI-H1975): 8.77; in vitro killing activity (multiple cell lines): good in vitro killing activity; tumor cell inhibition effect compared with Dxd and SN38 (multiple cell lines): higher tumor cell inhibition effect than Dxd and SN38; pIC50 (D17): 9.08; pIC50 (DCOL1 (S+L−)): 8.88; pIC50 (MP-0094-3): 8.41; pIC50 (CMT-U27): 9.03; pIC50 (MP-1044-1): 8.06; pIC50 (MP-0094-2): 8.57; pIC50 (MP-1092-1): 9.01
CC[C@@]1(O)C(=O)OCc2c1cc1n(c2=O)Cc2c-1nc1ccc(N)c3c1c2CCO3 [CPT-2, (S)-4-amino-9-ethyl-9-hydroxy-1,9,12,15-tetrahydro-13H-pyrano[4,3,2-de]pyrano[3′,4′:6,7]indolizino[1,2-b]quinoline-10,13(2H)-dione] | 8.75 | 8.41 | 8.26 | 8.25 | 8.02 | 8.85 | 9.52 | 9.21 | 9.26 | 8.56 | 9.50 | 7.92 | 9.18 | 9.54 | 8.69 | 8.71 | 9.08 | 8.83 | 9.40 | 8.71 | pIC50 (HCC1954): 8.94; pIC50 (A-431): 8.55; pIC50 (NCI-H2030): 8.88; pIC50 (Hela): 8.85; pIC50 (LOVO): 8.94; pIC50 (NCI-H1975): 8.71; in vitro killing activity (multiple cell lines): good in vitro killing activity; tumor cell inhibition effect compared with Dxd and SN38 (multiple cell lines): higher tumor cell inhibition effect than Dxd and SN38; pIC50 (D17): 8.89; pIC50 (DCOL1 (S+L−)): 8.64; pIC50 (MP-0094-3): 8.15; pIC50 (CMT-U27): 8.89; pIC50 (MP-1044-1): 8.07; pIC50 (MP-0094-2): 8.33; pIC50 (MP-1092-1): 8.76
